Data reported in patent publication US7169783B2, “(+)-Trans-4-(1-aminoethyl)-1-(4-pyridycarbamoyl)-cyclohexane and method for promoting neural growth in the central nervous system and in a patient at a site of neuronal lesion” (Universite de Montreal, priority 1998, dated 2007).

How the values were obtained:
[1] = test system: corticospinal tract (CST) fibers; design: species or system Balb-c female mice; conditions: mouse, in vivo
hindlimb motor function = assay: Behavioral recovery after SCI, modified BBB locomotor rating scale; assay type: in vivo, mice
Experimental: Since a toe clearance phase cannot be evaluated in recuperating mice, we modified the rating to a 17 point scale. Behavioral recovery was assessed for one month after SCI in an open field environment by the BBB method (Basso et al., 1995). […] Thus, scale points 16, 17 and 18 were removed from the scale. Mice raise their tail early in their recovery, and score 19 for tail up position was removed, leaving a 17 point total score. The mouse modified BBB score was as follows: [0] no observable hindlimb (HL) movement; […] […] In the late phase of recovery, the BBB score was determined from sequences of 4 steps or more from digitized videos projected on a computer screen at ¼ speed.

primary retinal neurons = assay: Neurite growth of primary retinal neurons on complex inhibitory substrates (CSPG, myelin); assay type: cell-based, rats; conditions: plated on myelin or CSPG; 48 hours; FIG. 8

C[C@@H](N)[C@H]1CC[C@H](C(=O)Nc2ccncc2)CC1 [Y27632, (+)-Trans-4-(1-aminoethyl)-1-(4-pyridycarbamoyl)-cyclohexane]
distance of the longest axon from the lesion site [1]: up to 3 mm
sprouting of transected CST axons [1]: regenerative sprouting into the dorsal white matter and toward the lesion site
locomotor recovery over 1 month (hindlimb motor function; 1 month period of observation): exhibited hindlimb-forelimb coordination
locomotor recovery at 24 hours after surgery (hindlimb motor function; 24 hours, control mice paraplegic, FIG. 10): already walking with weight support
length of neurites compared to untreated cells (primary retinal neurons): significantly increased the length of neurites
